Data taken from paper PMC4483627 (Marine Drugs, 2015).
Where two headings read alike, the source gives them in different places. Positions of bridges follow the written chain, without caps; N, C: chain ends. Residues, ends and D or L forms follow the SMILES beside them.

Experiments:
rat nAChR α4β2 = target: T1, rat nAChR α4β2 (Rattus norvegicus, UniProt P09483+P12390); test: cell-based
T1 construct: expressed in transfected cells; host or cells: Xenopus oocytes injected with cRNA

rat nAChR α7 = target: T2, rat nAChR α7 (Rattus norvegicus, UniProt Q05941); test: cell-based
T2 construct: expressed in transfected cells; host or cells: Xenopus oocytes injected with cRNA
T2 sequence (Q05941 23-502 limits assumed): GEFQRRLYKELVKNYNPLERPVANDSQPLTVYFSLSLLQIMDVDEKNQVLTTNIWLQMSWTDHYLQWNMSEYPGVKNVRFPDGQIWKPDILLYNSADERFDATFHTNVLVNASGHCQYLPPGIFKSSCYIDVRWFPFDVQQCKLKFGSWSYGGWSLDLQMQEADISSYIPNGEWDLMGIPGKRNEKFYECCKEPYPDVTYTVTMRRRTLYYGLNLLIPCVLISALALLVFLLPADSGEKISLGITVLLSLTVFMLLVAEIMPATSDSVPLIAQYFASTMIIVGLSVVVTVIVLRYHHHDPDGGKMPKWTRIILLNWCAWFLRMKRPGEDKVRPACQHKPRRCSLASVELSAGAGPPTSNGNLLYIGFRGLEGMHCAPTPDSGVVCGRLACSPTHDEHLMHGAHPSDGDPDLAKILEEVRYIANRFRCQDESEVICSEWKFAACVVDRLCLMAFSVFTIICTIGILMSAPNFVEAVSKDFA

rat nAChR α2β4 = target: T3, rat nAChR α2β4 (Rattus norvegicus, UniProt P12389+P12392); test: cell-based; conditions: IC50 α2β4
T3 construct: expressed in transfected cells; host or cells: Xenopus oocytes injected with cRNA
T3 sequence (P12389 28-511 limits assumed): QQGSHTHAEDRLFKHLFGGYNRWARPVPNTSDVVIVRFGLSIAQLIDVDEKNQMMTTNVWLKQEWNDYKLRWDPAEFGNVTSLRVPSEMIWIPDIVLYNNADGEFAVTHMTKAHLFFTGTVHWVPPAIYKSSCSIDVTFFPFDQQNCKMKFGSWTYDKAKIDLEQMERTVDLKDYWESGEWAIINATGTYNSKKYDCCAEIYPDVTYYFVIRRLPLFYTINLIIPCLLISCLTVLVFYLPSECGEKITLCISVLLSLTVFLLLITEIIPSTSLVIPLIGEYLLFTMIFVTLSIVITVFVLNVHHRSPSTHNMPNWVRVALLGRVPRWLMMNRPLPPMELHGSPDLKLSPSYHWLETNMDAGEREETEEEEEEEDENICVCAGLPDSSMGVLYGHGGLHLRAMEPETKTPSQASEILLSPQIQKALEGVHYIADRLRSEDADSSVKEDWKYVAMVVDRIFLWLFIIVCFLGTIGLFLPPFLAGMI
T3 sequence (P12392 21-495 limits assumed): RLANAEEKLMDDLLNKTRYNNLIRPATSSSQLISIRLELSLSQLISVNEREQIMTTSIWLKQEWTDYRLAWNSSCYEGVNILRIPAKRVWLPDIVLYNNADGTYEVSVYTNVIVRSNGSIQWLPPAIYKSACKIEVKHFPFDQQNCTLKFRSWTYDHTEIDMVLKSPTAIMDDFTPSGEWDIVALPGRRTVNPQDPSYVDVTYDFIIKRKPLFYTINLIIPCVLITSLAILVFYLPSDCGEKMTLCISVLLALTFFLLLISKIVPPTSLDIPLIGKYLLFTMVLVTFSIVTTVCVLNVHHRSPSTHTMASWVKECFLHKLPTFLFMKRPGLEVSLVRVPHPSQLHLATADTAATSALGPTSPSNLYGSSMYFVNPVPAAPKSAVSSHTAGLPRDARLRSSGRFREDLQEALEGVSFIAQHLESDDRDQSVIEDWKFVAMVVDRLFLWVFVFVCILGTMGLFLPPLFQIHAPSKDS

rat nAChR α3β2 [1] = target: T4, rat nAChR α3β2 (Rattus norvegicus, UniProt P04757+P12390); test: cell-based; format: cell-based
T4 construct: expressed in transfected cells; host or cells: Xenopus oocytes injected with cRNA
T4 sequence (P04757 26-499 limits assumed): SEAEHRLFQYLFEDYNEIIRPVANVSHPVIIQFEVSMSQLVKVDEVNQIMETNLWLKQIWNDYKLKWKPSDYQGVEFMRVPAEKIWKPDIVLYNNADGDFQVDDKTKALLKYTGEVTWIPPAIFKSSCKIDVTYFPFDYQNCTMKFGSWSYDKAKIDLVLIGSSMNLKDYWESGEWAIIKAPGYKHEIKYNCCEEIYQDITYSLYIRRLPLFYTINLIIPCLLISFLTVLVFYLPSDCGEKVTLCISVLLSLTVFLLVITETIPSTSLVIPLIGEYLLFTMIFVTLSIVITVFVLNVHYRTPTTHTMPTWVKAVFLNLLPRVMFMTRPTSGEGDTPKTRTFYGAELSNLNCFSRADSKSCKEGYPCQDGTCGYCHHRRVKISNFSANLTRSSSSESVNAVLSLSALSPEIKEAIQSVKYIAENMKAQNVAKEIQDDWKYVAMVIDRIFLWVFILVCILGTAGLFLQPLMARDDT
T4 sequence (P12390 25-500 limits assumed): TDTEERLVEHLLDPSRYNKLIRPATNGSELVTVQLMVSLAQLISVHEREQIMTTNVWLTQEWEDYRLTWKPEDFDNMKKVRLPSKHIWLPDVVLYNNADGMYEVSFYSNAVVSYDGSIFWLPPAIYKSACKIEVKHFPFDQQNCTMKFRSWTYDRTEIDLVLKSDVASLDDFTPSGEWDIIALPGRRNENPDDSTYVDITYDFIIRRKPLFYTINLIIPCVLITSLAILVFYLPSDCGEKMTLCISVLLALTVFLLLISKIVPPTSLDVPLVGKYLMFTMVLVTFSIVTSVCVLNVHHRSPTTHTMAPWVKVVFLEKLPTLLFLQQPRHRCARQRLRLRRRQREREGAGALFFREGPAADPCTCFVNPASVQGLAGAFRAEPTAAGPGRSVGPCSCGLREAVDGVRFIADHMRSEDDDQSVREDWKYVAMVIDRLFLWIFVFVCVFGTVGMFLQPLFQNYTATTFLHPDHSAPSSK

rat nAChR α3β4 = target: T5, rat nAChR α3β4 (Rattus norvegicus, UniProt P04757+P12392); test: cell-based
T5 construct: expressed in transfected cells; host or cells: Xenopus oocytes injected with cRNA
T5 sequence (P04757 26-499 limits assumed): as the sequence (P04757 26-499 limits assumed) above
T5 sequence (P12392 21-495 limits assumed): as the sequence (P12392 21-495 limits assumed) above

rat nAChR α9α10 = target: T6, rat nAChR α9α10 (Rattus norvegicus, UniProt P43144+Q9JLB5); test: cell-based
T6 construct: expressed in transfected cells; host or cells: Xenopus oocytes injected with cRNA
T6 sequence (P43144 26-479 limits assumed): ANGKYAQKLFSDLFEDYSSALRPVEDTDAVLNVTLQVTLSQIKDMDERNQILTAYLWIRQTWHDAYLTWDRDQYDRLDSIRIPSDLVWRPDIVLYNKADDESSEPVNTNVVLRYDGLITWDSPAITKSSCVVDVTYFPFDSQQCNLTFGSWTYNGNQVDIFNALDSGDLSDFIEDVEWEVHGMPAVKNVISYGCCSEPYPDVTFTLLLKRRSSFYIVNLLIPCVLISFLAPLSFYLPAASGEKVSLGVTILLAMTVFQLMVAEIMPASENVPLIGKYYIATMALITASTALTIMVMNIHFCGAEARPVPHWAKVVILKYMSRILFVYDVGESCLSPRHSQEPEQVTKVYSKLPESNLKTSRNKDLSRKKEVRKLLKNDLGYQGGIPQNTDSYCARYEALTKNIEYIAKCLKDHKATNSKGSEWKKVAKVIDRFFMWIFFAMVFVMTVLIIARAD
T6 sequence (Q9JLB5 25-447 limits assumed): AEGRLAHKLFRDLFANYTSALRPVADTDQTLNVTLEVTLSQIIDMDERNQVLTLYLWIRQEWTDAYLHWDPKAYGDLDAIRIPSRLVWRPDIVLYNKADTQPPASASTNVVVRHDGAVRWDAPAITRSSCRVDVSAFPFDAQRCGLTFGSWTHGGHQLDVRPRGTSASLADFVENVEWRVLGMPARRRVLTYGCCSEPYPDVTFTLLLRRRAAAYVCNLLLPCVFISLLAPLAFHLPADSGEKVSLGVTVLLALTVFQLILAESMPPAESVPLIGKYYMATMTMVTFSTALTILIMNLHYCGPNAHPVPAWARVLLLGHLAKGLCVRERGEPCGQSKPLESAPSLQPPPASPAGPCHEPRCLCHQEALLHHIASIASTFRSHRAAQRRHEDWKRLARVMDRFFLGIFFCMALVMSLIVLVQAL

rat nAChR α2β2 = target: T7, rat nAChR α2β2 (Rattus norvegicus, UniProt P12389+P12390); test: cell-based
T7 construct: expressed in transfected cells; host or cells: Xenopus oocytes injected with cRNA
T7 sequence (P12389 28-511 limits assumed): as the sequence (P12389 28-511 limits assumed) above
T7 sequence (P12390 25-500 limits assumed): as the sequence (P12390 25-500 limits assumed) above

rat nAChR α4β4 = target: T8, rat nAChR α4β4 (Rattus norvegicus, UniProt P09483+P12392); test: cell-based
T8 construct: expressed in transfected cells; host or cells: Xenopus oocytes injected with cRNA
T8 sequence (P09483 31-630 limits assumed): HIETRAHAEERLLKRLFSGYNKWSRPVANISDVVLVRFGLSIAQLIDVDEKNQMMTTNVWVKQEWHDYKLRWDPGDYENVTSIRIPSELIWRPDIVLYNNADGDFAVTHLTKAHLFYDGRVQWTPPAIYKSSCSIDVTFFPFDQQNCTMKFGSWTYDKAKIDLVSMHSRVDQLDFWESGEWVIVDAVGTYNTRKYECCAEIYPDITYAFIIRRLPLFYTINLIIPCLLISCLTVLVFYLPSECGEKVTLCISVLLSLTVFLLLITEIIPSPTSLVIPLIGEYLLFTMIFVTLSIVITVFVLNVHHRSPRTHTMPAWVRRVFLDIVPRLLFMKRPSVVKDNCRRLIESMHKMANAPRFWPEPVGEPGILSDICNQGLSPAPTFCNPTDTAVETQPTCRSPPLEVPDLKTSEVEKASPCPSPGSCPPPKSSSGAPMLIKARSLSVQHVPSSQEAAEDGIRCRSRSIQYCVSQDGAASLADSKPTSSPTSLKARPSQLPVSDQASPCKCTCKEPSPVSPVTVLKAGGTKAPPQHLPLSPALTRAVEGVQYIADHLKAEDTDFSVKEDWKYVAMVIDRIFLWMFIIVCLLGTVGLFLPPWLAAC
T8 sequence (P12392 21-495 limits assumed): as the sequence (P12392 21-495 limits assumed) above

rat nAChR α3β2 [2] = target: T4, rat nAChR α3β2; test: cell-based; format: cell-based; remark: listed apart in the source
rat nAChR α6/α3β2β3 = target: T9, rat nAChR α6/α3β2β3 (Rattus norvegicus, UniProt P04757+P12390+P12391+P43143); test: cell-based
T9 construct: expressed in transfected cells; host or cells: Xenopus oocytes injected with cRNA

rat nAChR α3β2 [3] = target: T4, rat nAChR α3β2; conditions: cited from earlier work

T1 sequence (P09483 31-630 limits assumed): as the sequence (P09483 31-630 limits assumed) above
T1 sequence (P12390 25-500 limits assumed): as the sequence (P12390 25-500 limits assumed) above

Compound | IC50 (rat nAChR α4β2) | IC50 (rat nAChR α7) | IC50 (rat nAChR α2β4) | IC50 (rat nAChR α3β2 [1]) | IC50 (rat nAChR α3β4) | IC50 (rat nAChR α9α10) | IC50 (rat nAChR α2β2) | IC50 (rat nAChR α4β4) | kon (rat nAChR α3β2 [2]) | koff (rat nAChR α3β2 [2]; SEM) | IC50 (rat nAChR α6/α3β2β3) | IC50 (rat nAChR α3β2 [3])
CC(C)C[C@@H]1NC(=O)[C@H](CCC(=O)O)NC(=O)[C@@H]2CCCN2C(=O)[C@H](CC(N)=O)NC(=O)[C@H](CO)NC(=O)[C@H](C(C)C)NC(=O)[C@H](Cc2c[nH]cn2)NC(=O)[C@@H]2CSSC[C@H](NC(=O)[C@H](CCC(=O)O)NC(=O)[C@@H]3CCCN3)C(=O)N[C@@H](CSSC[C@@H](C(N)=O)NC1=O)C(=O)N[C@@H]([C@@H](C)O)C(=O)N[C@@H](Cc1c[nH]cn1)C(=O)N1CCC[C@H]1C(=O)N[C@@H](C)C(=O)N2 [Mr1.7[H13N]] (H-PECCTHPACHVSNPELC-NH2; disulfide 3-9, 4-17) | > 10 µM | 2.42 µM | > 10 µM | 0.541 µM | > 10 µM | 1.83 µM | > 10 µM | > 10 µM | – | – | – | –
CC(C)C[C@@H]1NC(=O)[C@H](CCC(=O)O)NC(=O)[C@@H]2CCCN2C(=O)[C@H](Cc2c[nH]cn2)NC(=O)[C@H](CO)NC(=O)[C@H](C(C)C)NC(=O)[C@H](Cc2c[nH]cn2)NC(=O)[C@@H]2CSSC[C@H](NC(=O)[C@H](CCC(=O)O)NC(=O)[C@@H]3CCCN3)C(=O)N[C@@H](CSSC[C@@H](C(N)=O)NC1=O)C(=O)N[C@@H]([C@@H](C)O)C(=O)N[C@@H](Cc1c[nH]cn1)C(=O)N1CCC[C@H]1C(=O)N[C@@H](C)C(=O)N2 [Mr1.7] (H-PECCTHPACHVSHPELC-NH2; disulfide 3-9, 4-17) | > 10 µM | > 10 µM | > 10 µM | – | > 10 µM | 0.186 µM | > 10 µM | > 10 µM | 91300 M⁻¹ s⁻¹ | 0.00312 s⁻¹ | 0.284 µM | –
Vc1.1 | – | – | – | – | – | – | – | – | – | – | – | 5.53 µM
